This is an account of results in patent publication US10722501B2 (BAYER AKTIENGESELLSCHAFT, priority 2016, dated 2020).

One may read the IC50 as the concentration that gives 50% inhibition.

This test addresses T1, recombinant full-length human prolyl endopeptidase (PREP) (Homo sapiens, UniProt P48147).
T1 construct: To recombinant full-length human prolyl endopeptidase (PREP, R&D-Systems, 4308-SE); purchased R&D-Systems 4308-SE
T1 sequence (P48147 1-710): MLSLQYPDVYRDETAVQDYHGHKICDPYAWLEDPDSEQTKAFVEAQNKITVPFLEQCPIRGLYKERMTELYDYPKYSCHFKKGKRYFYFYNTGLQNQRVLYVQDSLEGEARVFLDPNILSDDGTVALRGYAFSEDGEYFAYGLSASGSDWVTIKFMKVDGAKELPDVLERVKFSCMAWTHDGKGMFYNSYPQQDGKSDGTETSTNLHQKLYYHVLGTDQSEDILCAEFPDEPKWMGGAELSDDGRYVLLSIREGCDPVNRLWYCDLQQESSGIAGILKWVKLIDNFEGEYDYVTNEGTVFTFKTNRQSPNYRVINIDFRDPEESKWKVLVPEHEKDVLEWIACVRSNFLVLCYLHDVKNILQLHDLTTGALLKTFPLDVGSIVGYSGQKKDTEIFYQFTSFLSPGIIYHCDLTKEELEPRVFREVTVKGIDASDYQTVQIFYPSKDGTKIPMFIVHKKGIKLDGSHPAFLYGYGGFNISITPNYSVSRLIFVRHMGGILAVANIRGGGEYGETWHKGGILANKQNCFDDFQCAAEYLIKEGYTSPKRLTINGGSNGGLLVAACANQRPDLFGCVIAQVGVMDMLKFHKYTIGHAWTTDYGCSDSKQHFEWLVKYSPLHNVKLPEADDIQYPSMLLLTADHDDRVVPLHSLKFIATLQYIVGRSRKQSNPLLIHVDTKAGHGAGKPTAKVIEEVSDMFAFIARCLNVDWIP
The experiment in a line: Biochemical human prolyl endopeptidase (PREP) assay with fluorescently labelled substrate. The note with it: substrate Z-Gly-Pro-AMC 50 μM, 32° C., 60 min; some as mean values from multiple independent determinations. Put shortly: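 Initial rates of fluorescence increase from 50 μM Z-Gly-Pro-AMC cleavage (ex 360/em 465 nm, 60 min, 32° C) give percent PREP activity versus no-compound control, and IC50 is interpolated. Enzyme used at 0.4 nM (final, example) in Tris pH 7.5 with EDTA, GSH, BSA and Brij-35; compounds span 1 nM to 30 μM.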
Consider `Cc1ccc(Cn2nc3n(c2=O)C(C(=O)N2CC(OC(F)F)C2)CCC3)cc1` (racemic) [Example 123, (5RS)-5-{[3-(Difluoromethoxy)azetidin-1-yl]carbonyl}-2-(4-methylbenzyl)-5,6,7,8-tetrahydro[1,2,4]triazolo[4,3-a]pyridin-3(2H)-one], for which the IC50 stood at 12 nM.

`O=C([C@@H]1CCCc2nn(Cc3cccc(C(F)(F)F)c3)c(=O)n21)N1CCC(F)(F)C1` [Example 446, (5S)-5-[(3,3-Difluoropyrrolidin-1-yl)carbonyl]-2-[3-(trifluoromethyl)benzyl]-5,6,7,8-tetrahydro[1,2,4]triazolo[4,3-a]pyridin-3(2H)-one]: the IC50 stood at 0.73 nM.

Take `Cc1ccc(Cn2nc3n(c2=O)[C@H](C(=O)N2CCC[C@@H]2C)CCC3)cc1` [Example 127, 2-(4-Methylbenzyl)-(5S)-{[(2S)-2-methylpyrrolidin-1-yl]carbonyl}-5,6,7,8-tetrahydro[1,2,4]triazolo[4,3-a]pyridin-3(2H)-one]: the IC50 was 43.5 nM.

Regarding `O=C([C@@H]1CCCc2nn(Cc3ccnc(C(F)(F)F)c3F)c(=O)n21)N1CC[C@@H](F)C1` [Example 478, (5S)-5-{[(3R)-3-Fluoropyrrolidin-1-yl]carbonyl}-2-{[3-fluoro-2-(trifluoromethyl)pyridin-4-yl]methyl}-5,6,7,8-tetrahydro[1,2,4]triazolo[4,3-a]pyridin-3(2H)-one], the concentration for half-maximal inhibition (IC50) worked out at 2.65 nM. Consider `O=C([C@@H]1CCCc2nn(Cc3cncc(C(F)(F)F)c3)c(=O)n21)N1C[C@@H](F)[C@@H](F)C1` [Example 578, (5S)-5-{[(3R,4S)-3,4-Difluoropyrrolidin-1-yl]carbonyl}-2-{[5-(trifluoromethyl)pyridin-3-yl]methyl}-5,6,7,8-tetrahydro[1,2,4]triazolo[4,3-a]pyridin-3(2H)-one], for which the half-inhibitory concentration (IC50) turned out to be 2.3 nM. To `O=C(C1C(C(F)(F)F)CCc2nn(Cc3ncc(Cl)cc3Cl)c(=O)n21)N1C[C@@H](F)[C@@H](F)C1` (single isomer, unassigned) [Example 288] belongs 16 nM; to `O=C([C@@H]1CCCc2nn(Cc3ccc(C(F)(F)F)c(F)c3)c(=O)n21)N1CC[C@H](F)C1` [Example 471, (5S)-5-{[(3S)-3-Fluoropyrrolidin-1-yl]carbonyl}-2-[3-fluoro-4-(trifluoromethyl)benzyl]-5,6,7,8-tetrahydro[1,2,4]triazolo[4,3-a]pyridin-3(2H)-one], 0.425 nM; to `O=C(C1CC(C(F)(F)F)Cc2nn(Cc3ccnc(C(F)(F)F)c3F)c(=O)n21)N1CC(F)C1` (single isomer, unassigned) [Example 255, (5RS,7RS)-5-[(3-Fluoroazetidin-1-yl)carbonyl]-2-{[3-fluoro-2-(trifluoromethyl)pyridin-4-yl]methyl}-7-(trifluoromethyl)-5,6,7,8-tetrahydro[1,2,4]triazolo[4,3-a]pyridin-3(2H)-one], 15.1 nM. Regarding `O=C(C1CC(C(F)(F)F)Cc2nn(Cc3ccc(Cl)nc3)c(=O)n21)N1CC[C@H](F)C1` (single isomer, unassigned) [Example 244], the IC50 is 11 nM. On to `CC(c1ccc(C(F)(F)F)nc1)n1nc2n(c1=O)[C@H](C(=O)N1CC[C@H](F)C1)CCC2` (single isomer, unassigned) [Example 217], for which the IC50 was 1.2 nM. Consider `CCn1nc(C(F)(F)F)cc1Cn1nc2n(c1=O)[C@H](C(=O)N1CC(F)C1)CCC2` [Example 363, (5S)-2-{[1-Ethyl-3-(trifluoromethyl)-1H-pyrazol-5-yl]methyl}-5-[(3-fluoroazetidin-1-yl)carbonyl]-5,6,7,8-tetrahydro[1,2,4]triazolo[4,3-a]pyridin-3(2H)-one], for which the IC50 came out at 2.3 nM.

As to `O=C([C@@H]1CCCc2nn(Cc3cc(C(F)(F)F)nc4ccc(F)cc34)c(=O)n21)N1CCCC1` [Example 498, (5S)-2-{[6-Fluoro-2-(trifluoromethyl)quinolin-4-yl]methyl}-5-(pyrrolidin-1-ylcarbonyl)-5,6,7,8-tetrahydro[1,2,4]triazolo[4,3-a]pyridin-3(2H)-one], the half-maximal inhibitory concentration (IC50) came out at 0.44 nM. `O=C(C1CCCc2nn(Cc3ccc(F)c(Cl)c3)c(=O)n21)N1CC(O)C1` (racemic) [Example 95, (5RS)-2-(3-Chloro-4-fluorobenzyl)-5-[(3-hydroxyazetidin-1-yl)carbonyl]-5,6,7,8-tetrahydro[1,2,4]triazolo[4,3-a]pyridin-3(2H)-one]: the IC50 worked out at 9 nM.

With `CC(c1ccc(C(F)(F)F)nc1)n1nc2n(c1=O)[C@H](C(=O)N1C[C@@H](F)[C@@H](F)C1)CCC2` (single isomer, unassigned) [Example 219], the IC50 is 7.3 nM.

With `O=C([C@@H]1CCCc2nn(Cc3ccc(Cl)c(F)c3)c(=O)n21)N1CC(F)C1` [Example 463, (5S)-2-(4-Chloro-3-fluorobenzyl)-5-[(3-fluoroazetidin-1-yl)carbonyl]-5,6,7,8-tetrahydro[1,2,4]triazolo[4,3-a]pyridin-3(2H)-one], the IC50 stood at 0.225 nM. `O=C([C@@H]1CCCc2nn(CCc3ccc(F)cc3)c(=O)n21)N1CC(F)C1` [Example 520, (5S)-5-[(3-Fluoroazetidin-1-yl)carbonyl]-2-[2-(4-fluorophenyl)ethyl]-5,6,7,8-tetrahydro[1,2,4]triazolo[4,3-a]pyridin-3(2H)-one]: the IC50 stood at 1.7 nM. For the compound `O=C([C@@H]1CCCc2nn(Cc3cc(F)c(F)cc3F)c(=O)n21)N1CC(F)C1` [Example 491, (5S)-5-[(3-Fluoroazetidin-1-yl)carbonyl]-2-(2,4,5-trifluorobenzyl)-5,6,7,8-tetrahydro[1,2,4]triazolo[4,3-a]pyridin-3(2H)-one], the IC50 amounted to 0.44 nM. Consider `O=C([C@@H]1CCC(F)(F)c2nn(Cc3ncc(F)cc3F)c(=O)n21)N1CCC(F)(F)C1` [Example 588, (5S)-2-[(3,5-Difluoropyridin-2-yl)methyl]-5-[(3,3-difluoropyrrolidin-1-yl)carbonyl]-8,8-difluoro-5,6,7,8-tetrahydro[1,2,4]triazolo[4,3-a]pyridin-3(2H)-one], for which the IC50 turned out to be 18 nM. Regarding `O=C([C@@H]1CCCc2nn(Cc3ccc(F)cc3F)c(=O)n21)N1CC(F)C1` [Example 486, (5S)-2-(2,4-Difluorobenzyl)-5-[(3-fluoroazetidin-1-yl)carbonyl]-5,6,7,8-tetrahydro[1,2,4]triazolo[4,3-a]pyridin-3(2H)-one], the 50% inhibitory concentration (IC50) was 0.465 nM. On to `O=C(C1CCC(C(F)(F)F)c2nn(Cc3ccc(C(F)(F)F)nc3)c(=O)n21)N1CC[C@H](F)C1` (mixture of isomers) [Example 271, (5RS,8RS)-5-{[(3S)-3-Fluoropyrrolidin-1-yl]carbonyl}-8-(trifluoromethyl)-2-{[6-(trifluoromethyl)pyridin-3-yl]methyl}-5,6,7,8-tetrahydro[1,2,4]triazolo[4,3-a]pyridin-3(2H)-one], for which the IC50 is 1.1 nM. Regarding `O=C(C1CCc2nn(Cc3ccnc(C(F)(F)F)c3F)c(=O)n21)N1C[C@@H](F)[C@@H](F)C1` (single isomer, unassigned) [Example 177], the IC50 is 6.9 nM. For the compound `O=C([C@@H]1CCCc2nn(Cc3cncc(C(F)(F)F)c3)c(=O)n21)N1CC[C@H](F)C1` [Example 515, (5S)-5-{[(3S)-3-Fluoropyrrolidin-1-yl]carbonyl}-2-{[5-(trifluoromethyl)pyridin-3-yl]methyl}-5,6,7,8-tetrahydro[1,2,4]triazolo[4,3-a]pyridin-3(2H)-one], the IC50 is 0.59 nM. As for `O=C(C1CC(C(F)(F)F)Cc2nn(Cc3ccc(Cl)cn3)c(=O)n21)N1CCC(F)(F)C1` (single isomer, unassigned) [Example 567, (5RS,7RS)-2-[(5-Chloropyridin-2-yl)methyl]-5-[(3,3-difluoropyrrolidin-1-yl)carbonyl]-7-(trifluoromethyl)-5,6,7,8-tetrahydro[1,2,4]triazolo[4,3-a]pyridin-3(2H)-one], the IC50 amounted to 2.7 nM.

For `O=C([C@@H]1CCCc2nn(Cc3csc(C(F)(F)F)n3)c(=O)n21)N1C[C@@H](F)[C@@H](F)C1` [Example 366, (5S)-5-{[(3R,4S)-3,4-Difluoropyrrolidin-1-yl]carbonyl}-2-{[2-(trifluoromethyl)-1,3-thiazol-4-yl]methyl}-5,6,7,8-tetrahydro[1,2,4]triazolo[4,3-a]pyridin-3(2H)-one], the 50% inhibitory concentration (IC50) was 2.1 nM. For `CC(c1ccc(Cl)cc1)n1nc2n(c1=O)C(C(=O)N1CCCC1)CCC2` (single isomer, unassigned) [Example 5, (5RS)-2-[(1 RS)-1-(4-Chlorophenyl)ethyl]-5-(pyrrolidin-1-ylcarbonyl)-5,6,7,8-tetrahydro[1,2,4]triazolo[4,3-a]pyridin-3(2H)-one], the IC50 stood at 8 nM.
